Legend:
BCLXL = BCLXL (Homo sapiens, UniProt Q07817, V10N/V9A); experiment: AlphaLISA assay (BIM peptide displacement); format: binding; settings: 20 pM protein, 1 nM peptide
Experimental: AlphaLISA assay measures an increase in alpha signal upon binding biotinylated GST(1-218)-(FACTOR_XA)-hs ? (2-209)(SEQ ID:02—GST UniProtKB® primary accession number P08515 and BCLXL UniProtKB® primary accession number Q07817-1) coupled to a Streptavidin labeled Alpha donor bead to N-terminally labeled peptide derived from BIM (Fluorescein-betaAla-Ahx-SEQID:05, wherein SEQ ID:05 is […]) coupled to an Anti-FTIC AlphaLISA acceptor bead.
GST(1-218)(FACTOR_XA)-hs ? (2-209) was biotinylated in 50 mM phosphate buffer using a 20 fold excess of EZ Link NHS-LC-Biotin (thermoFisher catalogue number 21336) overnight at 4° C.
The addition of a compound which binds competitively to the same site as the peptide will result in an decrease in the Alpha signal of the available donor bead-protein-peptide-acceptor bead complex due to displacement of the peptide.
An 11-point serial dilution of each compound was prepared in DMSO, the final buffer conditions were 10 mM 4-(2-hydroxyethyl)-1-piperazineethanesulfonic acid [HEPES], 150 mM NaCl, 0.05% Tween 20, pH 7.4 and 4% DMSO. The final protein concentration in the assay was 20 pM with the peptide present at 1 nM). Alpha beads were used at a final concentration of 5 ug/mL. The experiments were incubated for overnight at 23° C. after acceptor bead addition. Finally the donor bead is added and incubated for 2 hours at 23° C. before Alpha signal measured on a Biotek Synergy2 plate reader (Excitation 680 nm, emission 615 nm).

H146 cells = experiment: H146 cell viability, MTT assay; format: cell-based; settings: Homo sapiens, NCI-H146, 48 h, 48 h exposure
Summary of the method: (§1)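 Cells grown in RPMI 1640 with 10% heat-inactivated FBS at 37° C, 5% CO2, exposed 48 h to nine 3.16-fold serial compound dilutions in triplicate. MTT added for 4 h, SDS/HCl solubilisation overnight, absorbance at 540 nm; IC50 by four-parameter fit.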

MOLT-4 cells = experiment: MOLT-4 cell viability, MTT assay; format: cell-based; settings: Homo sapiens, MOLT-4, 48 h, 48 h exposure
Summary of the method: as §1

BCLXL, sequence (Q07817 with tags, fused parts or gaps V9A/V10N): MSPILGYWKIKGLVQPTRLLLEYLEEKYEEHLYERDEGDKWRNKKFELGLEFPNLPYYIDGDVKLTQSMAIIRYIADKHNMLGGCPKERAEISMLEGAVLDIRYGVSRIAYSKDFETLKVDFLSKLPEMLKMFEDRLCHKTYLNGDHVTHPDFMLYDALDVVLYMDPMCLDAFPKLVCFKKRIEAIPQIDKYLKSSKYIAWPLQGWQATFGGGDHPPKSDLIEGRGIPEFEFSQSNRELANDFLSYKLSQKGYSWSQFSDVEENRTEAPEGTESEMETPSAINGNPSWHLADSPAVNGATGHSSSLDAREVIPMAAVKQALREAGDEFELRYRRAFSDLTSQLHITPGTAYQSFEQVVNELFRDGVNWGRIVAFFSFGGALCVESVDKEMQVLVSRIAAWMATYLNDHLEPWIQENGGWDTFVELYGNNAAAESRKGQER

Work on Cc1cc(N(CCCCO)c2nc(C(=O)O)cs2)nnc1Nc1nc2ccccc2s1 [Example 110, 2-[[6-(1,3-Benzothiazol-2-ylamino)-5-methyl-pyridazin-3-yl]-(4-hydroxybutyl)amino]thiazole-4-carboxylic acid] yielded an IC50 (BCLXL) of 0.48 nM.
For COC(CO)CN(c1cc(C)c(Nc2nc3ccccc3s2)nn1)c1nc(C(=O)O)cs1 (stereo not drawn) [Example 111, 2-[[6-(1,3-Benzothiazol-2-ylamino)-5-methyl-pyridazin-3-yl]-(3-hydroxy-2-methoxy-propyl)amino]thiazole-4-carboxylic acid], the IC50 (BCLXL) was 27 nM.
With CNCC#Cc1ccc(OCCCc2sc(N(CCCC(CO)OC)c3cc(C)c(Nc4nc5ccccc5s4)nn3)nc2C(=O)O)c(F)c1 (stereo not drawn) [Example 112, 2-[[6-(1,3-Benzothiazol-2-ylamino)-5-methyl-pyridazin-3-yl]-(5-hydroxy-4-methoxy-pentyl)amino]-5-[3-[2-fluoro-4-[3-(methylamino)prop-1-ynyl]phenoxy]propyl]thiazole-4-carboxylic acid] the IC50 (H146 cells) was 30.9 nM, the IC50 (BCLXL) was 0.028 nM and the IC50 (MOLT-4 cells) was 77.5 nM.
For CNCC#Cc1ccc(OCCCc2sc(N(CCCC(O)CN3CCOCC3)c3cc(C)c(Nc4nc5ccccc5s4)nn3)nc2C(=O)O)c(F)c1 (stereo not drawn) [Example 113, 2-[[6-(1,3-Benzothiazol-2-ylamino)-5-methyl-pyridazin-3-yl]-(4-hydroxy-5-morpholino-pentyl)amino]-5-[3-[2-fluoro-4-[3-(methylamino)prop-1-ynyl]phenoxy]propyl]thiazole-4-carboxylic acid], the IC50 (H146 cells) was 13 nM, the IC50 (BCLXL) was 0.028 nM and the IC50 (MOLT-4 cells) was 25.7 nM.
In the case of CNCC#Cc1ccc(OCCCc2sc(N(CC(CO)N3CCOCC3)c3cc(C)c(Nc4nc5ccccc5s4)nn3)nc2C(=O)O)c(F)c1 (stereo not drawn) [Example 115, 2-[[6-(1,3-Benzothiazol-2-ylamino)-5-methyl-pyridazin-3-yl]-(3-hydroxy-2-morpholino-propyl)amino]-5-[3-[2-fluoro-4-[3-(methylamino)prop-1-ynyl]phenoxy]propyl]thiazole-4-carboxylic acid], the IC50 (H146 cells) is reported as greater than 150 nM, the IC50 (BCLXL) is reported as 0.089 nM and the IC50 (MOLT-4 cells) is reported as greater than 150 nM.
In the case of Cc1ccc(S(=O)(=O)N(C)CC#Cc2ccc(OCCCc3sc(N(CCC(O)CO)c4cc(C)c(Nc5nc6ccccc6s5)nn4)nc3C(=O)O)c(F)c2)cc1 (stereo not drawn) [Example 120, 2-[[6-(1,3-Benzothiazol-2-ylamino)-5-methyl-pyridazin-3-yl]-(3,4-dihydroxybutyl)amino]-5-[3-[2-fluoro-4-[3-[methyl(p-tolylsulfonyl)amino]prop-1-ynyl]phenoxy]propyl]thiazole-4-carboxylic acid], the IC50 (H146 cells) is reported as 280 nM, the IC50 (BCLXL) is reported as 0.099 nM and the IC50 (MOLT-4 cells) is reported as 557 nM.
Compound COc1ccc(CN(C)CC#Cc2ccc(OCCCc3sc(N(CCC(O)CO)c4cc(C)c(Nc5nc6ccccc6s5)nn4)nc3C(=O)O)c(F)c2)cc1 (stereo not drawn) [Example 121, 2-[[6-(1,3-Benzothiazol-2-ylamino)-5-methyl-pyridazin-3-yl]-(3,4-dihydroxybutyl)amino]-5-[3-[2-fluoro-4-[3-[(4-methoxyphenyl)methyl-methyl-amino]prop-1-ynyl]phenoxy]propyl]thiazole-4-carboxylic acid] has an IC50 (BCLXL) of 0.058 nM.
For Cc1cc(N(CCCCCO)c2nc(C(=O)O)cs2)nnc1Nc1nc2ccccc2s1 [Example 125, 2-[[6-(1,3-Benzothiazol-2-ylamino)-5-methyl-pyridazin-3-yl]-(5-hydroxypentyl)amino]thiazole-4-carboxylic acid], the IC50 (BCLXL) was 8.6 nM.
Work on Cc1cc(N(CCCO)c2nc(C(=O)O)c(CCCOc3ccc(C#CCN(C)C)cc3F)s2)nnc1Nc1nc2ccccc2s1 [Example 126, 2-[[6-(1,3-Benzothiazol-2-ylamino)-5-methyl-pyridazin-3-yl]-(3-hydroxypropyl)amino]-5-[3-[4-[3-(dimethylamino)prop-1-ynyl]-2-fluoro-phenoxy]propyl]thiazole-4-carboxylic acid] yielded an IC50 (BCLXL) of 0.023 nM.
In the case of Cc1cc(N(CCCC(O)CN2CCOCC2)c2nc(C(=O)O)cs2)nnc1Nc1nc2ccccc2s1 (stereo not drawn) [Example 131, 2-[[6-(1,3-Benzothiazol-2-ylamino)-5-methyl-pyridazin-3-yl]-(4-hydroxy-5-morpholino-pentyl)amino]thiazole-4-carboxylic acid], the IC50 (BCLXL) is reported as 2.7 nM.
Work on COCC(O)CCCN(c1cc(C)c(Nc2nc3ccccc3s2)nn1)c1nc(C(=O)O)cs1 (stereo not drawn) [Example 132, 2-[[6-(1,3-Benzothiazol-2-ylamino)-5-methyl-pyridazin-3-yl]-(4-hydroxy-5-methoxy-pentyl)amino]thiazole-4-carboxylic acid] yielded an IC50 (BCLXL) of 7.7 nM.
In the case of COC(CO)CCCN(c1cc(C)c(Nc2nc3ccccc3s2)nn1)c1nc(C(=O)O)cs1 (stereo not drawn) [Example 133, 2-[[6-(1,3-Benzothiazol-2-ylamino)-5-methyl-pyridazin-3-yl]-(5hydroxy-4-methoxy-pentyl)amino]thiazole-4-carboxylic acid], the IC50 (BCLXL) is reported as 8.9 nM.
In the case of Cc1cc(N(C)c2nc(C(=O)O)c(C3CN(C(=O)OC(C)(C)C)C3)s2)nnc1Nc1nc2ccccc2s1 [Example 135, 2-({6-[(1,3-Benzothiazol-2-yl)amino]-5-methylpyridazin-3-yl}(methyl)amino)-5-{1-[(tert-butoxy)carbonyl]azetidin-3-yl}-1,3-thiazole-4-carboxylic acid], the IC50 (H146 cells) is reported as 5290 nM, the IC50 (BCLXL) is reported as 3.9 nM and the IC50 (MOLT-4 cells) is reported as 3240 nM.
With Cc1cc(N(C)c2nc(C(=O)O)c(C3CN(C(=O)c4ccccc4)C3)s2)nnc1Nc1nc2ccccc2s1 [Example 136, 5-(1-Benzoylazetidin-3-yl)-2-({6-[(1,3-benzothiazol-2-yl)amino]-5-methylpyridazin-3-yl}(methyl)amino]-1,3-thiazole-4-carboxylic acid] the IC50 (BCLXL) was 7.7 nM.
In the case of Cc1cc(N(C)c2nc(C(=O)O)c(CC(C)(C)COc3ccc(C#CCN(C)C)cc3F)s2)nnc1Nc1nc2ccccc2s1 [Example 137, 2-({6-[(1,3-Benzothiazol-2-yl)amino]-5-methylpyridazin-3-yl}(methyl)amino)-5-(3-{4-[3-(dimethylamino)prop-1-yn-1-yl]-2-fluorophenoxy}-2,2-dimethylpropyl)-1,3-thiazole-4-carboxylic acid], the IC50 (H146 cells) is reported as 320 nM, the IC50 (BCLXL) is reported as 0.27 nM and the IC50 (MOLT-4 cells) is reported as 61.4 nM.
Cc1cc(N(CCCC(O)CN(C)C)c2nc(C(=O)O)cs2)nnc1Nc1nc2ccccc2s1 (stereo not drawn) [Example 143, 2-[[6-(1,3-Benzothiazol-2-ylamino)-5-methyl-pyridazin-3-yl]-[5-(dimethylamino)-4-hydroxy-pentyl]amino]thiazole-4-carboxylic acid] gave an IC50 (BCLXL) of 22 nM.
With CC(=O)N1CC(c2sc(N(C)c3cc(C)c(Nc4nc5ccccc5s4)nn3)nc2C(=O)O)C1 [Example 152, 5-(1-Acetylazetidin-3-yl)-2-({6-[(1,3-benzothiazol-2-yl)amino]-5-methylpyridazin-3-yl}(methyl)amino)-1,3-thiazole-4-carboxylic acid] the IC50 (BCLXL) was 2.3 nM.
In the case of Cc1cc(N(C)c2nc(C(=O)O)c(C3CN(c4ccccc4)C3)s2)nnc1Nc1nc2ccccc2s1 [Example 153, 2-({6-[(1,3-Benzothiazol-2-yl)amino]-5-methylpyridazin-3-yl}(methyl)amino)-5-(1-phenylazetidin-3-yl)-1,3-thiazole-4-carboxylic acid], the IC50 (BCLXL) is reported as 80 nM.
Compound C/C(=C\c1sc(N(C)c2cc(C)c(Nc3nc4ccccc4s3)nn2)nc1C(=O)O)COc1ccccc1 [Example 162, 2-({6-[(1,3-Benzothiazol-2-yl)amino]-5-methylpyridazin-3-yl}(methyl)amino)-5-[(1E)-2-methyl-3-phenoxyprop-1-en-1-yl]-1,3-thiazole-4-carboxylic acid] has an IC50 (H146 cells) of 6590 nM, an IC50 (BCLXL) of 1.9 nM and an IC50 (MOLT-4 cells) of 3170 nM.

Reference: patent US12649733B2, “3,6-diamino-pyridazin-3-yl derivatives, pharmaceutical compositions containing them and their uses as pro-apoptotic agents” (LES LABORATOIRES SERVIER, priority 2019, dated 2026)
